Values of other authors in US10463679B2, “Compressed capsules for giving birth to males” (priority 2016, dated 2019).

Tests used:
[1] = manufacturer's web site and prescription accompanying Florinef tablet
[2] = sodium and chloride intake per day
mice = conditions: for mice
[3] = one liter administered intravenously; glucose 5% + water, saline 9% sodium chloride + water, albumin

In the case of C[C@]12CCC(=O)C=C1CC[C@H]1[C@@H]3CC[C@](O)(C(=O)CO)[C@@]3(C)C[C@H](O)[C@@]12F [Fludrocortisone], the “side effects of the drug” value [1] is listed as “skin thinning and fragility”.

For [Cl-].[Na+] [Sodium chloride], the harmful dose [2] is given as 1000 g per day and the lethal dose (mice) is given as 2.5 g/kg per day.

In the case of Saline, the “distribution of the solution among the three regions (intracellular, intercellular, blood vessels)” value [3] is listed as “distributed among the three regions but precipitated in the intercellular region”.
